Laboratory results published in patent publication US11053239B2, “Compounds as BLC-2-selective apoptosis-inducing agents” (Fochon Pharmaceuticals, Ltd., priority 2017, dated 2021).
Like-named read-outs stand apart in the source and are kept apart here.

Columns and labels:
[1] = test system: DOHH2 cells; test: Cell proliferation assay (MTS), DOHH2 cells; assay type: cell-based
Source text: (§1) MTS testing kit was purchased from Promega. The RPMI-1640, Fetal bovine serum and Penicillin-Streptomycin were purchased from Gibco. Dimethyl sulfoxide (DMSO) was purchased from Sigma.
(§2) To investigate whether a compound is able to inhibit the activity of Bcl-2 in cells, a mechanism-based assay using DOHH2 (DSMZ No.® ACC 47) and RS4; 11 (ATCC® CRL-1873™) cell was developed. In this assay, inhibition of Bcl-2 was detected by the inhibition of DOHH2 and RS4; 11 cells proliferation. DOHH2 and RS4; 11 cells were cultured in culture flasks to 40-80% confluence in RPMI-1640 plus 10% fetal bovine serum. Cells were collected and plated onto 96-well plates at desired cell density (DOHH2: 5000 cells/well; RS4; 11: 30000 cells/well). Plates were incubated overnight at 37° C., with 5% CO2 to adhere. Compounds were added to the plates, and the final compound concentrations were 10000, 3333, 1111, […], 124, 41, 14, 4.6 and 1.5 nM. Plates plated with DOHH2 or RS4; 11 cells were placed at 37° C., with 5% CO2 for 120 h (DOHH2) or 72 h (RS4; 11) respectively. 20 μl MTS/100 μl medium mixture solution were added to each well and incubate the plates for exactly 2 hours. The reaction was stopped by adding 25 μl 10% SDS per well. Measure absorbance at 490 nm and 650 nm (reference wavelength). ICso was calculated using GraphPad Prism 5.0.

[2] = test system: RS4; 11 cells; test: Cell proliferation assay (MTS), RS4; 11 cells; assay type: cell-based; details: Homo sapiens, RS4-11, 72 h, read-out: RS4
Source text: as §1, §2

[3] = Homo sapiens, DOHH-2, 120 h, DOHH2 (DSMZ ACC 47) cell proliferation, 5000 cells/well, 120 h, MTS, mechanism-based readout of Bcl-2 inhibition, read-out: DOHH2 IC50
[4] = RS4, 11 (ATCC CRL-1873) cell proliferation, 30000 cells/well, 72 h, MTS, mechanism-based readout of Bcl-2 inhibition, 11 IC50

| IC50 [2, 4] [nM] | SMILES | IC50 [1, 3] [nM] | IC50 ([1]; Homo sapiens, DOHH-2, 120 h, read-out: DOHH2 IC50 (nM)) [nM] | IC50 ([2]; 11 IC50 (nM)) [nM] | IC50 ([1]; DOHH2 (DSMZ ACC 47) cell proliferation, 5000 cells/well, 120 h, MTS, mechanism-based readout of Bcl-2 inhibition, read-out: DOHH2 IC50) [nM] |
| --- | --- | --- | --- | --- | --- |
| 11 | CC(C)C(=O)N=S1(=O)CCN(C[C@H](C)Nc2ccc(S(=O)(=O)NC(=O)c3ccc(N4CCN(CC5=C(c6ccc(Cl)cc6)CC(C)(C)CC5)CC4)cc3Oc3cnc4[nH]ccc4c3)cc2[N+](=O)[O-])CC1 [Example 66, (S)-2-((1H-pyrrolo[2,3-b]pyridin-5-yl)oxy)-4-(4-((4′-chloro-5,5-dimethyl-3,4,5,6-tetrahydro-[1,1′-biphenyl]-2-yl)methyl)piperazin-1-yl)-N-((4-((1-(1-(isobutyrylimino)-1-oxido-1λ^6-thiomorpholino)propan-2-yl)amino)-3-nitrophenyl)sulfonyl) benzamide] | 23 | – | – | – |
| 23 | CC(C)OC(=O)N=S1(=O)CCN(CC[C@H](C)Nc2ccc(S(=O)(=O)NC(=O)c3ccc(N4CCN(CC5=C(c6ccc(Cl)cc6)CC(C)(C)CC5)CC4)cc3Oc3cnc4[nH]ccc4c3)cc2[N+](=O)[O-])CC1 [Example 86, isopropyl (S)-(4-(3-((4-(N-(2-((1H-pyrrolo[2,3-b]pyridin-5-yl)oxy)-4-(4-((4′-chloro-5,5-dimethyl-3,4,5,6-tetrahydro-[1,1′-biphenyl]-2-yl)methyl)piperazin-1-yl)benzoyl)sulfamoyl)-2-nitrophenyl)amino)butyl)-1-oxido-1λ^6-thiomorpholin-1-ylidene) carbamate] | 35 | – | – | – |
| 43 | CCN=S1(=O)CCC(CNc2ccc(S(=O)(=O)NC(=O)c3ccc(N4CCN(CC5=C(c6ccc(Cl)cc6)CC(C)(C)CC5)CC4)cc3Oc3cnc4[nH]ccc4c3)cc2[N+](=O)[O-])CC1 (stereo not drawn) [Example 30, 2-((1H-pyrrolo[2,3-b]pyridin-5-yl)oxy)-4-(4-((4′-chloro-5,5-dimethyl-3,4,5,6-tetrahydro-[1,1′-biphenyl]-2-yl)methyl)piperazin-1-yl)-N-((4-(((1-(ethylimino)-1-oxidohexahydro-1λ^6-thiopyran-4-yl)methyl)amino)-3-nitrophenyl)sulfonyl) benzamide] | 132 | – | – | – |
| – | CCS(=O)(CC)=NC1CCC(CNc2ccc(S(=O)(=O)NC(=O)c3ccc(N4CCN(CC5=C(c6ccc(Cl)cc6)CC(C)(C)CC5)CC4)cc3Oc3cnc4[nH]ccc4c3)cc2[N+](=O)[O-])CC1 (stereo not drawn) [Example 9B, 2-((1H-pyrrolo[2,3-b]pyridin-5-yl)oxy)-4-(4-((4′-chloro-5,5-dimethyl-3,4,5,6-tetrahydro-[1,1′-biphenyl]-2-yl)methyl)piperazin-1-yl)-N-((4-((((1r,4r)-4-((diethyl(oxo)-λ^6-sulfanylidene)amino)cyclohexyl)methyl)amino)-3-nitrophenyl)sulfonyl)benzamide] | – | 11 | 5 | – |
| 24 | CC(C)C(=O)N=S1(=O)CCN(CCNc2ccc(S(=O)(=O)NC(=O)c3ccc(N4CCN(CC5=C(c6ccc(Cl)cc6)CC(C)(C)CC5)CC4)cc3Oc3cnc4[nH]ccc4c3)cc2[N+](=O)[O-])CC1 [Example 68, 2-((1H-pyrrolo[2,3-b]pyridin-5-yl)oxy)-4-(4-((4′-chloro-5,5-dimethyl-3,4,5,6-tetrahydro-[1,1′-biphenyl]-2-yl)methyl)piperazin-1-yl)-N-((4-((2-(1-(isobutyrylimino)-1-oxido-1λ^6-thiomorpholino)ethyl)amino)-3-nitrophenyl)sulfonyl) benzamide] | 217 | – | – | – |
| 3 | CC1(C)CCC(CN2CCN(c3ccc(C(=O)NS(=O)(=O)c4ccc(NCC5CCC(N=S(C)(C)=O)CC5)c([N+](=O)[O-])c4)c(Oc4cnc5[nH]ccc5c4)c3)CC2)=C(c2ccc(Cl)cc2)C1 (single isomer, unassigned) [Example 50A, 2-((1H-pyrrolo[2,3-b]pyridin-5-yl)oxy)-4-(4-((4′-chloro-5,5-dimethyl-3,4,5,6-tetrahydro-[1,1′-biphenyl]-2-yl)methyl)piperazin-1-yl)-N-((4-(((4-((dimethyl(oxo)-λ^6-sulfanylidene)amino)cyclohexyl)methyl)amino)-3-nitrophenyl)sulfonyl) benzamide] | – | – | – | 3.5 |
| 397 | CC1(C)CCC(CN2CCN(c3ccc(C(=O)NS(=O)(=O)c4ccc(NCC(CF)N5CCP(C)(=O)CC5)c([N+](=O)[O-])c4)c(Oc4cnc5[nH]ccc5c4)c3)CC2)=C(c2ccc(Cl)cc2)C1 (stereo not drawn) [Example 13, 2-((1H-pyrrolo[2,3-b]pyridin-5-yl)oxy)-4-(4-((4′-chloro-5,5-dimethyl-3,4,5,6-tetrahydro-[1,1′-biphenyl]-2-yl)methyl)piperazin-1-yl)-N-((4-((3-fluoro-2-(4-methyl-4-oxido-1,4-azaphosphinan-1-yl)propyl)amino)-3-nitrophenyl)sulfonyl)benzamide] | 615 | – | – | – |
| 184 | CC(C)OC(=O)N=S1(=O)CCN(CC[C@H](C)Nc2ccc(S(=O)(=O)NC(=O)c3ccc(N4CCN(CC5=C(c6ccc(Cl)cc6)CC(C)(C)CC5)CC4)cc3Oc3cnc4[nH]ccc4c3)cc2S(=O)(=O)C(F)(F)F)CC1 [Example 93, isopropyl (S)-(4-(3-((4-(N-(2-((1H-pyrrolo[2,3-b]pyridin-5-yl)oxy)-4-(4-((4′-chloro-5,5-dimethyl-3,4,5,6-tetrahydro-[1,1′-biphenyl]-2-yl)methyl)piperazin-1-yl)benzoyl)sulfamoyl)-2-((trifluoromethyl)sulfonyl)phenyl)amino)butyl)-1-oxido-1λ^6-thiomorpholin-1-ylidene) carbamate] | 537 | – | – | – |
| 60 | CC1(C)CCC(CN2CCN(c3ccc(C(=O)NS(=O)(=O)c4ccc(NCCN5CCS(=O)(=NC6CC6)CC5)c([N+](=O)[O-])c4)c(Oc4cnc5[nH]ccc5c4)c3)CC2)=C(c2ccc(Cl)cc2)C1 [Example 35, 2-((1H-pyrrolo[2,3-b]pyridin-5-yl)oxy)-4-(4-((4′-chloro-5,5-dimethyl-3,4,5,6-tetrahydro-[1,1′-biphenyl]-2-yl)methyl)piperazin-1-yl)-N-((4-((2-(1-(cyclopropylimino)-1-oxido-1λ^6-thiomorpholino)ethyl)amino)-3-nitrophenyl)sulfonyl)benzamide] | 181 | – | – | – |
| 520 | CC1(C)CCC(CN2CCN(c3ccc(C(=O)NS(=O)(=O)c4ccc(NCC(N5CCP(C)(=O)CC5)C(F)(F)F)c([N+](=O)[O-])c4)c(Oc4cnc5[nH]ccc5c4)c3)CC2)=C(c2ccc(Cl)cc2)C1 (stereo not drawn) [Example 14, 2-((1H-pyrrolo[2,3-b]pyridin-5-yl)oxy)-4-(4-((4′-chloro-5,5-dimethyl-3,4,5,6-tetrahydro-[1,1′-biphenyl]-2-yl)methyl)piperazin-1-yl)-N-((3-nitro-4-((3,3,3-trifluoro-2-(4-methyl-4-oxido-1,4-azaphosphinan-1-yl)propyl)amino)phenyl)sulfonyl) benzamide] | – | – | – | – |

| SMILES | IC50 [2, 4] [nM] | IC50 [1, 3] [nM] | IC50 ([1]; Homo sapiens, DOHH-2, 120 h, read-out: DOHH2 IC50 (nM)) [nM] | IC50 ([2]; 11 IC50 (nM)) [nM] | IC50 ([1]; DOHH2 (DSMZ ACC 47) cell proliferation, 5000 cells/well, 120 h, MTS, mechanism-based readout of Bcl-2 inhibition, read-out: DOHH2 IC50) [nM] |
| --- | --- | --- | --- | --- | --- |
| CCS(=O)(CC)=NC1CCC(CNc2ccc(S(=O)(=O)NC(=O)c3ccc(N4CCN(CC5=C(c6ccc(Cl)cc6)CC(C)(C)CC5)CC4)cc3Oc3cnc4[nH]ccc4c3)cc2[N+](=O)[O-])CC1 (stereo not drawn) [Example 9A, 2-((1H-pyrrolo[2,3-b]pyridin-5-yl)oxy)-4-(4-((4′-chloro-5,5-dimethyl-3,4,5,6-tetrahydro-[1,1′-biphenyl]-2-yl)methyl)piperazin-1-yl)-N-((4-((((1r,4r)-4-((diethyl(oxo)-λ^6-sulfanylidene)amino)cyclohexyl)methyl)amino)-3-nitrophenyl)sulfonyl)benzamide] | 4 | 67 | – | – | – |
